Measurements: ChEMBL document CHEMBL5260825, “Chemical Constituents of Bryophytes: Structures and Biological Activity” (J Nat Prod, 2018)
pIC50: −log10 of the molar value. ≈ marks a conversion by molar mass, not a printed value. Where “and” joins values, the source holds several entries; their conditions need not be identical. Identical values can stand only once.

test system: RAW264.7; experiment: Inhibition of LPS-induced NO production in mouse RAW264.7 cells; format: functional, cell-based; details: not given

SMILES | pIC50
Oc1cc(CCc2ccccc2O)c2ccoc2c1 | 5.35
CC(C)=CCC/C(C)=C/Cc1c(O)cc(O)cc1CCc1ccccc1 | 5.35
C[C@H]1C(O)(O)C[C@@]2(C)[C@@H](CC[C@@H]3O[C@@]32C)[C@]1(C)CCc1ccoc1 | 5.35
C[C@H]1CC[C@@]2(C)[C@@H](CC[C@@H]3O[C@@]32C)[C@]1(C)CCc1ccoc1 | 5.35

Results, then the compound that gave them:

pIC50 | SMILES
5.35 | CC1(C)[C@H]2CC[C@]3(C)Oc4cc(O)cc(CCc5ccccc5)c4[C@H]1[C@@H]23
5.20 | C=C1C[C@@]23CC(OC(=O)/C=C/c4ccc(O)c(O)c4)[C@@H]1[C@@]2(C)CCCC3(C)C (some centres undefined)

test system: Peritoneal macrophage cell; experiment: Inhibition of superoxide anion radical release in guinea pig peritoneal macrophages; format: functional, cell-based; details: Cavia porcellus

SMILES | IC50
CC1(C)[C@H](OC(=O)/C=C/c2ccc(O)c(O)c2)CC[C@]2(C)[C@H]3C4C[C@@]12C[C@]43C | 7.5 µg/mL (≈ 19.6 µM)
C=C1[C@@H]2CCC3[C@@](CC(=O)[C@@H]4C(C)(C)CCC[C@@]34CO[C@@H]3O[C@H](CO)[C@@H](O)[C@H](O)[C@H]3O)(C2)[C@@H]1O (some centres undefined) | 12.5 µg/mL (≈ 26 µM)
C[C@]12COc3cc(CCc4ccccc4)c(C(=O)O)c(O)c3[C@H]1C2 | 6 µg/mL (≈ 18.5 µM)
Cc1cc([C@@]2(C)CCCC2(C)C)cc(O)c1O | 12.5 µg/mL (≈ 53.3 µM)
C=C1[C@@H]2CCC3[C@@](CC(=O)[C@@H]4C(C)(C)CCC[C@@]34CO[C@@H]3O[C@H](CO)[C@@H](O)[C@H](O)[C@H]3OC(C)=O)(C2)[C@@H]1O (some centres undefined) | 12.5 µg/mL (≈ 23.9 µM)
C/C1=C\[C@@H]2[C@H](CC/C(C)=C/CC1)C2(C)C=O (some centres undefined) | 12.5 µg/mL (≈ 57.3 µM)
C=C1CC[C@H]2[C@@H]([C@H]3C(C)=COC(=O)[C@@H]13)C2(C)C | 12.5 µg/mL (≈ 53.8 µM)

test system: HL-60; experiment: Antiproliferative activity against human HL-60 cells assessed as cell growth inhibition; format: functional, cell-based; details: not given

pIC50 | IC50 | SMILES
6.55 |  | C=C1C(=O)[C@H]2C[C@@H]1CC1=C2[C@@]2(C)[C@H](CC1)C(C)(C)CC[C@@H]2O
5.57 |  | C=C[C@@]1(O)CC(=O)[C@@]2(C(=O)OC)[C@H](C)CC[C@@]2(C)[C@@H]1C
5.15 |  | C=C1C(=O)[C@@]23CC[C@@H]4C(C)(C)CC[C@H](O)[C@@]4(C)C2=CC[C@@H]1C3
5.34 |  | C=C1C(=O)O[C@@H]2/C=C(\C)CC/C=C(\C)CC(OC(C)=O)[C@@H]12 (some centres undefined)
5.89 |  | C=C1C(=O)[C@@H]2C3=C(CC[C@@H]4C(C)(C)CCC[C@@]34C)C[C@H]1[C@@H]2O
6.23 |  | C=C1C(=O)[C@@]23CC[C@@H]4C(C)(C)CCC[C@@]4(C)C2=CC(=O)[C@@H]1C3
6.31 |  | C=C1C(=O)[C@@]23CC[C@@H]4C(C)(C)CCC[C@@]4(C)[C@@H]2[C@@H](O)C[C@@H]1C3
6.40 |  | C=C1C(=O)[C@]23C[C@H]1CC[C@H]2[C@]1(C)CCCC(C)(C)[C@H]1[C@@H](O)C3
5.92 |  | C=C1C(=O)[C@H]2C[C@@H]1CC1=C2[C@]2(C)CCCC(C)(C)[C@H]2CC1
6.11 |  | C=C1C(=O)[C@@H]2C3=C(CC[C@@H]4C(C)(C)CC[C@H](O)[C@@]34C)C[C@H]1[C@@H]2O
 | 5.3 µg/mL | C=C1CCC[C@H]2C(=C)C(=O)O[C@@]23[C@@H](C)CC[C@@H]13
5.07 |  | C=C1C(=O)O[C@H]2C/C(C)=C/CC[C@@]3(C)O[C@H]3C[C@H]12

test system: P388; experiment: Antiproliferative activity against mouse P388 cells assessed as cell growth inhibition; format: functional, cell-based; details: not given

IC50 | GI50 | SMILES
1.1 µg/mL (≈ 4.73 µM) |  | C=C1C(=O)O[C@H]2C3=C(C)CCC[C@@]3(C)CC[C@H]12
1 µg/mL (≈ 3.62 µM) |  | C=C1C(=O)C[C@H]2[C@H]3[C@@H]1[C@]2(COC(C)=O)CCCC3(C)C
2.3 µg/mL (≈ 9.19 µM) |  | CC1(C)CCC[C@]2(C)CC3=CC(=O)O[C@@]3(O)C[C@@H]12
1 µg/mL (≈ 4.58 µM) |  | C=C1C(=O)C[C@H]2[C@H]3[C@@H]1[C@]2(C)CCCC3(C)C
 | 0.48 µg/mL and 1.6 µM | C=C1C(=O)[C@@]23CC[C@@H]4C(C)(C)CCC[C@@]4(C)[C@@H]2[C@@H](O)C[C@@H]1C3
0.8 µg/mL (≈ 2.51 µM) | 1.9 µg/mL and 5.9 µM | C[C@H]1C(=O)C2=C[C@H]1CCC(=O)[C@]1(C)CCCC(C)(C)[C@H]1C[C@H]2O
0.7 µg/mL (≈ 3.01 µM) |  | C=C1C(=O)O[C@H]2/C=C(\C)CC/C=C(\C)CC[C@H]12

SMILES | IC50 | GI50
CC(C)(O)[C@H]1CC[C@@]2(C)C1CC[C@]1(C)C2CCC2[C@@]3(C)CCCC(C)(C)[C@@H]3[C@@H](O)C[C@]21C (some centres undefined) | 1.1 µg/mL (≈ 2.47 µM) | 
